Assays:
fundic pouch dog [1] = assay: Suppressing action on gastric acid secretion (histamine stimulation) in fundic pouch dog; assay type: in vivo; conditions: for Amount of gastric juice secretion: histamine stimulation 0.2 mg/kg/hr, control 116.1 ± 12.3, mean ± standard error for 6 samples
Experimental: (§1) An effect on gastric acid secretion by stimulation under awakening was studied by using (fundic pouch dog). For preparation of the fundic pouch dog, a mongrel dog after starvation overnight was subjected to sterile ventrotomy under anesthesia using sodium pentobarbital (30 mg/kg, i.v.), and a fistula was attached to a part of the corpus ventriculi. After recovery period for two weeks, the dog was fixed to the Pavlov's stand, and gastric juice was collected every 15 minutes for 4 hours under histamine stimulation (0.2 mg/kg/hr). A volume of each collected gastric juice was recorded, and the juice was titrated with 0.01N NaOH using pH automatic measuring apparatus (Radiometer Copenhagen). The test compound, encapsulated in a gelatin capsule, was orally administered one hour before histamine administration.

fundic pouch dog [2] = assay: Suppressing action on gastric acid secretion (tetragastrin stimulation) in fundic pouch dog; assay type: in vivo; conditions: for Amount of gastric juice secretion: tetragastrin stimulation 2 μg/kg/hr, control 40.1 ± 3.9, mean ± standard error for 6 samples
Experimental: as §1
Experiment was conducted in a similar manner as Example 1 except that the stimulating agent was replaced with tetragastrin(2 μg/kg/hr).

For `O=C(N[C@H]1CN2CCC1CC2)c1cnc2ccsc2c1O` [Test compound, R-(−)-N-(1-azabicyclo[2.2.2]oct-3-yl)-7-hydroxythieno[3,2-b]-pyridine-6-carboxamide], the “Amount of gastric juice secretion” value (fundic pouch dog [1]; 3 μg/kg oral (gelatin capsule) one hour before histamine) was 76.8 ± 7.4 mEq/4 hr, the “Amount of gastric juice secretion” value (fundic pouch dog [1]; 10 μg/kg oral (gelatin capsule) one hour before histamine) was 61.9 ± 5.5 mEq/4 hr and the “secretion of gastric juice by histamine stimulation (result in words)” value (fundic pouch dog [1]; histamine stimulation, fundic pouch dog) was “suppressed”. For the same compound, the “Amount of gastric juice secretion” value (fundic pouch dog [2]; 10 μg/kg oral) was 26.7 ± 7.8 mEq/4 hr, the “Amount of gastric juice secretion” value (fundic pouch dog [2]; 30 μg/kg oral) was 12.9 ± 5.3 mEq/4 hr and the “secretion of gastric juice by tetragastrin stimulation (result in words)” value (fundic pouch dog [2]; tetragastrin stimulation, fundic pouch dog) was “suppressed”.

Source: patent publication US6967207B2, “Preventive or therapeutic agents for gastric or esophageal regurgitation” (Mitsubishi Pharma Corporation, priority 2000, dated 2005)
